According to paper PMC11571207, “Stereorandomized Oncocins with Preserved Ribosome Binding and Antibacterial Activity” (Journal of Medicinal Chemistry, 2024):
In brackets after ≈: the same amount, converted by molar mass. Non-standard residues stand in square brackets, D forms with d. Residues, ends and D or L forms follow the SMILES beside them.

Key:
human red blood cells = test: Hemolysis assay, minimum hemolytic concentration; conditions: for Haemolysis on hRBC, MHC: 2.5% human red blood cells (final) in 10 mM phosphate, 150 mM NaCl, pH 7.4, 25 °C, 4 h, visual inspection; for MHC human red blood cells: supplement CSV
E. coli W3110 = test: microbe, parasite or virus in culture; conditions: for MIC E. coli, 12.5% MHB / MIC E. coli, Full MHB: E. coli W3110, 16–20 h at 37 °C, broth microdilution; for MIC E. coli, 12.5% MHB: 12.5% Müller–Hinton medium; for MIC E. coli, Full MHB: full Müller–Hinton medium; for MIC E. coli W3110: supplement CSV
Source text: (§1) We tested antibacterial effects against the Gram-negative bacteria Escherichia coli, Klebsiella pneumoniae, Pseudomonas aeruginosa, and Acinetobacter baumannii and the Gram-positive methicillin-resistant Staphylococcus aureus (MRSA).
(§2) Bacterial growth assay (Figure S1), transmission electron microscopy (Figure S6), serum stability assay (Figure S7), circular dichroism spectral recording (Figures S8 and S9), antimicrobial and hemolysis activity assays (MIC and MHC), and vesicle leakage assay were carried out as described in earlier publications.[43],[44]
(§3) Minimum inhibitory concentration assay
(§4) Antimicrobial activity was assayed against P. aeruginosa PAO1, K. pneumoniae NCTC418, E. coli W3110, A. baumannii ATCC 19606, methicillin-resistant S. aureus COL (MRSA), and for selected peptides on P. aeruginosa PA14 and the polymyxin-B-resistant derivative PA14 2P4, as well as the clinical isolates ZEM-1A and ZEM9A, K. pneumoniae OXA-48, S. aureus Newman, Enterobacter cloacae and Burkholderia cenocepacia. The minimal inhibitory concentration (MIC) was determined by using broth microdilution method. A colo ny of bacteria was picked and grown in Luria-Bertani (LB) medium overnight at 37°C. For E. coli BW25113 sbmA::kan the medium was supplemented with 25 mg/L of kanamycin. The next day, the culture was then regrown in LB medium to log phase (OD600 = 0.6 to 0.8), which lasted approximately 4 h, and diluted to an OD600 of 0.022 in the desired medium. Stock solutions of 1 mg/mL of the samples were prepared in sterilized milliQ water and diluted to the beginning concentration of 64 μg/mL in 300 μL Mueller Hinton (MH)-medium. The diluted samples were added to first well of 96-well microtiter plate (TPP, untreated, Faust Laborbedarf, AG, Schaffhausen) and diluted serially by ½. Finally, 4 μL of the bacterial suspension was inoculated into the sample solutions (150 μL/well) with a final inoculation of about 5∙10^5 CFU/mL. The plates were then incubated at 37°C for 15-18h. For each assay, sterility (broth only) and growth control (broth with bacterial inoculum, without antibiotics) were checked with two columns in the plate. The next day, 15 μL of 3-(4,5-dimethylthiazol-2-yl)-2,5-diphenyltetrazolium bromide (MTT) was added to each well of the plate, such a way that MIC was defined as the lowest concentration of the peptide that inhibited visible growth of the tested

S. aureus COL (MRSA) = test: microbe, parasite or virus in culture; conditions: for MIC S. aureus, 12.5% MHB / MIC S. aureus, Full MHB: S. aureus COL (MRSA), 16–20 h at 37 °C; for MIC S. aureus, 12.5% MHB: 12.5% Müller–Hinton medium; for MIC S. aureus, Full MHB: full Müller–Hinton medium; for MIC S. aureus COL (MRSA): supplement CSV
Source text: as §1, §2, §3, §4

K. pneumoniae NCTC 418 = test: microbe, parasite or virus in culture; conditions: for MIC K. pneumoniae, 12.5% MHB / MIC K. pneumoniae, Full MHB: K. pneumoniae NCTC 418, 16–20 h at 37 °C; for MIC K. pneumoniae, 12.5% MHB: 12.5% Müller–Hinton medium; for MIC K. pneumoniae, Full MHB: full Müller–Hinton medium; for MIC K. pneumoniae NCTC418: supplement CSV
Source text: as §1, §2, §3, §4

A. baumannii ATCC19606 = test: microbe, parasite or virus in culture; conditions: for MIC A. baumannii, 12.5% MHB / MIC A. baumannii, Full MHB: A. baumannii ATCC19606, 16–20 h at 37 °C; for MIC A. baumannii, 12.5% MHB: 12.5% Müller–Hinton medium; for MIC A. baumannii, Full MHB: full Müller–Hinton medium; for MIC A. baumannii ATCC19606: supplement CSV
Source text: as §1, §2, §3, §4

P. aeruginosa PAO1 = test: microbe, parasite or virus in culture; conditions: for MIC P. aeruginosa, 12.5% MHB / MIC P. aeruginosa, Full MHB: P. aeruginosa PAO1, 16–20 h at 37 °C; for MIC P. aeruginosa, 12.5% MHB: 12.5% Müller–Hinton medium; for MIC P. aeruginosa, Full MHB: full Müller–Hinton medium; for MIC P. aeruginosa PAO1: supplement CSV
Source text: as §1, §2, §3, §4

Compound | Haemolysis on hRBC, MHC (human red blood cells) | MHC human red blood cells (human red blood cells) | MIC E. coli, 12.5% MHB (E. coli W3110) | MIC E. coli, Full MHB (E. coli W3110) | MIC E. coli W3110 (E. coli W3110; 12.5% MH pH 7.4) | MIC E. coli W3110 (E. coli W3110; full MH pH 7.4) | MIC S. aureus, 12.5% MHB (S. aureus COL (MRSA)) | MIC S. aureus, Full MHB (S. aureus COL (MRSA)) | MIC S. aureus COL (MRSA) (S. aureus COL (MRSA); 12.5% MH pH 7.4) | MIC S. aureus COL (MRSA) (S. aureus COL (MRSA); full MH pH 7.4) | MIC K. pneumoniae, 12.5% MHB (K. pneumoniae NCTC 418) | MIC K. pneumoniae, Full MHB (K. pneumoniae NCTC 418) | MIC K. pneumoniae NCTC418 (K. pneumoniae NCTC 418; 12.5% MH pH 7.4) | MIC K. pneumoniae NCTC418 (K. pneumoniae NCTC 418; full MH pH 7.4) | MIC A. baumannii, 12.5% MHB (A. baumannii ATCC19606) | MIC A. baumannii, Full MHB (A. baumannii ATCC19606) | MIC A. baumannii ATCC19606 (A. baumannii ATCC19606; 12.5% MH pH 7.4) | MIC A. baumannii ATCC19606 (A. baumannii ATCC19606; full MH pH 7.4) | MIC P. aeruginosa, 12.5% MHB (P. aeruginosa PAO1) | MIC P. aeruginosa, Full MHB (P. aeruginosa PAO1) | other results
CC[C@@H](C)[C@@H](NC(=O)[C@@H](CCCNC(=N)N)NC(=O)[C@@H](CCCNC(=N)N)NC(=O)[C@H]1CCCN1C(=O)[C@H]1CCCN1C(=O)[C@H](CCCNC(=N)N)NC(=O)[C@@H]1CCCN1C(=O)[C@H](CCCNC(=N)N)NC(=O)[C@@H]1CCCN1C(=O)[C@H](CC(C)C)NC(=O)[C@H](Cc1ccc(O)cc1)NC(=O)[C@@H]1CCCN1C(=O)[C@@H]1CCCN1C(=O)[C@H](CCCCN)NC(=O)[C@H](CC(=O)O)NC(=O)[C@@H](N)C(C)C)C(=O)N[C@H](Cc1ccc(O)cc1)C(=O)N[C@H](CC(N)=O)C(=O)N[C@H](CCCNC(=N)N)C(N)=O [D8Cterm-Onc] (H-VDKPPYLPRPR[dP][dP][dR][dR][dI][dY][dN][dR]-NH2) | >1000 µg/mL | >1000 µg/mL | 1 µg/mL (≈ 0.418 µM) | 16 µg/mL (≈ 6.69 µM) | 1 µg/mL (≈ 0.418 µM) | 16 µg/mL (≈ 6.69 µM) | >64 / 64 μg/mL | >64 / 64 μg/mL | 64 µg/mL (≈ 26.8 µM) | >64 µg/mL | 2 µg/mL (≈ 0.837 µM) | 4 µg/mL (≈ 1.67 µM) | 2 µg/mL (≈ 0.837 µM) | 4 µg/mL (≈ 1.67 µM) | 8 µg/mL (≈ 3.35 µM) | 64 µg/mL (≈ 26.8 µM) | 8 µg/mL (≈ 3.35 µM) | 64 µg/mL (≈ 26.8 µM) | 4 µg/mL (≈ 1.67 µM) | > 64 µg/mL | MIC P. aeruginosa PAO1 (P. aeruginosa PAO1; 12.5% MH pH 7.4): 4 µg/mL (≈ 1.67 µM); MIC P. aeruginosa PAO1 (P. aeruginosa PAO1; full MH pH 7.4): >64 µg/mL
CC[C@@H](C)[C@@H](NC(=O)[C@@H](CCCNC(=N)N)NC(=O)[C@@H](CCCNC(=N)N)NC(=O)[C@H]1CCCN1C(=O)[C@H]1CCCN1C(=O)[C@@H](CCCNC(=N)N)NC(=O)[C@@H]1CCCN1C(=O)[C@H](CCCNC(=N)N)NC(=O)[C@@H]1CCCN1C(=O)[C@H](CC(C)C)NC(=O)[C@H](Cc1ccc(O)cc1)NC(=O)[C@@H]1CCCN1C(=O)[C@@H]1CCCN1C(=O)[C@H](CCCCN)NC(=O)[C@H](CC(=O)O)NC(=O)[C@@H](N)C(C)C)C(=O)N[C@H](Cc1ccc(O)cc1)C(=O)N[C@H](CC(N)=O)C(=O)N[C@H](CCCNC(=N)N)C(N)=O [D9Cterm-Onc] (H-VDKPPYLPRP[dR][dP][dP][dR][dR][dI][dY][dN][dR]-NH2) | >1000 µg/mL | >1000 µg/mL | 2 µg/mL (≈ 0.837 µM) | 4 µg/mL (≈ 1.67 µM) | 2 µg/mL (≈ 0.837 µM) | 4 µg/mL (≈ 1.67 µM) | >64 / >64 μg/mL | >64 / >64 μg/mL | >64 µg/mL | >64 µg/mL | 2 µg/mL (≈ 0.837 µM) | 4 µg/mL (≈ 1.67 µM) | 2 µg/mL (≈ 0.837 µM) | 4 µg/mL (≈ 1.67 µM) | 4 µg/mL (≈ 1.67 µM) | 16 µg/mL (≈ 6.69 µM) | 4 µg/mL (≈ 1.67 µM) | 16 µg/mL (≈ 6.69 µM) | 4 µg/mL (≈ 1.67 µM) | 64 µg/mL (≈ 26.8 µM) | MIC P. aeruginosa PAO1 (P. aeruginosa PAO1; 12.5% MH pH 7.4): 4 µg/mL (≈ 1.67 µM); MIC P. aeruginosa PAO1 (P. aeruginosa PAO1; full MH pH 7.4): 64 µg/mL (≈ 26.8 µM)
